# Earlier results as cited in PMC6347699 (Proceedings of the National Academy of Sciences of the …, 2019).
# Entries after “also recorded” stand apart in the source; their conditions may differ. Ends that are not written are not given here.
# Tests used:
# [1] = tested on: Gram-negative enterobacteria; settings: range of Gram-negative enterobacteria
# [2] = harsh denaturing conditions
"Ki (Eco RNAP; read-out: Ki, inhibition of Eco RNAP in in vitro transcription reactions)",Substance,inhibition of Eco RNAP (Eco RNAP),mode of inhibition with respect to NTPs (Eco RNAP),antimicrobial properties [1],stability of structure and activity [2],inhibition of RNAP backtracking (RNAP backtracking)
,acinetodin [reference compound],inhibit Eco RNAP,,,,
,klebsidin [reference compound],inhibit Eco RNAP,,,,
~1000 nM,"microcin J25 (GGAGHVPEYFVGIGTPISFYG; ends and bridges not checked; UniProt Q9X2V7 38-58, looked up) [MccJ25]",,partially competitive; also recorded: partial competitive,antimicrobial properties against a range of Gram-negative enterobacteria,stable to harsh denaturing conditions,inhibit RNAP backtracking
